# Results published in patent US20080280877A1, “Azetidines” (Pfizer Inc, priority 2007, published 2008).
# Molecular target: T1, recombinant human EP-2 receptor (Homo sapiens, UniProt P43116)
# T1 construct: cell line stably transfected with full length cDNA encoding human Prostaglandin E2 was established; expressed in transfected cells; host or cells: CHO (Chinese hamster ovary) cells, stably transfected
# Test: in vitro antagonist potency against recombinant human EP-2 receptor in CHO cells (cAMP, Protocol 1)
# Format: cell-based
# Conditions: functional Ki by Cheng-Prusoff from IC50; CHO cells stimulated with PGE2 (5 nM); cAMP readout; read-out: EP2 Ki
# Description: 1.0 Measurement of in vitro Antagonist Potency (IC50) of Compounds Against Recombinant Human Prostaglandin E2 Receptor in CHO Cells
# The prostaglandin E2 (EP-2) receptor is Gs coupled and agonism of the receptor by PGE2 results in activation of intracellular adenylate cyclase enzymes that synthesise the second messenger signalling molecule, adenosine 3′,5′-cyclic monophosphate (cAMP). […] Decreases in cAMP levels following treatment of stimulated recombinant EP-2 cells with potential antagonist compounds were measured and potency (IC50) calculated as follows. A Chinese hamster ovary (CHO) cell line stably transfected with full length cDNA encoding human Prostaglandin E2 was established using standard molecular biology methods. Test compounds were dissolved in dimethyl sulphoxide (DMSO) at 4 mM. 11 point half log unit increment dilution series of test compound were prepared in DMSO then diluted 1 in 40 in a buffer comprised of phosphate buffered saline (PBS) and 0.05% pluronic F-127 surfactant. Freshly cultured cells at 80-90% confluence were harvested and re-suspended in 90% growth media/10% DMSO. The cells were frozen using a planar freezer and stored in frozen aliquots in cryovials in liquid nitrogen until the day of the experiment. A vial of cells was defrosted in a 37° C. water bath for 2 min, then transferred to 10 ml of Dulbecco's Modified Eagle's Medium (DMEM). The cells were then centrifuged for 5 min at 1000 g and the pellet re-suspended at 1,000,000 cells/ml in DMEM. 5,000 cells (5 ul) were added to 5 ul of the compound dilution series in a 384 well assay plate and pre-incubated for 30 min at 37° C. 5 ul of agonist (15 nM PGE2 in PBS to give 5 nM FAC) was added and plates further incubated for 90 min at 37° C. The relative cAMP concentration in each well was then measured using a ? -galactosidase enzyme fragment complementation method purchased in kit form as the Discoverx cAMP II kit from GE Healthcare, UK. […] Sigmoidal curves were fitted to plots of log10 inhibitor concentration vs. percent effect. IC50 estimates were determined as the concentration of test compound giving an effect half way between the bottom and top asymptotes of the sigmoidal dose response curve. Each experiment included an IC50 determination for the literature compound as a standard to track assay consistency and allow fair comparison between values obtained in different experiments. The EC50 of PGE2 is used in combination with the ligand concentration in the assay to determine Ki values for antagonist dose responses using the Cheng-Prusoff equation. Consequently an agonist dose response curve is carried out for each experiment using the same incubation as the antagonist plate.
# T1 sequence (P43116 whole entry): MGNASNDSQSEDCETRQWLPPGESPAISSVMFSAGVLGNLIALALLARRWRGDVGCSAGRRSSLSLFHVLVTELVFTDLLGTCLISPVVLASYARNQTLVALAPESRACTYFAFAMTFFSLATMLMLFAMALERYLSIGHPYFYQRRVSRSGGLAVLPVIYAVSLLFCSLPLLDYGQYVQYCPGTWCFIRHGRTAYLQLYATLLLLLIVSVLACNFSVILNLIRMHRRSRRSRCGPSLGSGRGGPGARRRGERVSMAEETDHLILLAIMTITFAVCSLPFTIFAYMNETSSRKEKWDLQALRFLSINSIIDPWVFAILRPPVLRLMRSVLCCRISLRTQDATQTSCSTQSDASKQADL
row,SMILES,Ki [µM]
1,Cc1ccc2cc(OCC3(C(=O)O)CN(C(=O)c4ccc(Cl)cc4)C3)ccc2n1 [Example 23],0.101
2,"COc1ccc2cc(OCC3(C#N)CN(C(=O)c4ccc(F)cc4)C3)ccc2c1 [Example 52, 1-(4-Fluorobenzoyl)-3-{[(6-methoxy-2-naphthyl)oxy]methyl}azetidine-3-carbonitrile]",0.182
3,"COc1ccc2cc(OCC3(C(=O)NS(C)(=O)=O)CN(C(=O)c4ccc(F)cc4)C3)ccc2c1 [Example 50, 1-(4-Fluorobenzoyl)-3-{[(6-methoxy-2-naphthyl)oxy]methyl}-N-(methylsulfonyl)azetidine-3-carboxamide]",0.776
4,COc1ccc2cc(OCC3(C(=O)O)CN(C(=O)c4ccccc4)C3)ccc2c1 [Example 20],0.0244
